Source: patent publication US6358885B1, “Substituted phenylheterocyclic herbicides” (Mississippi State University, priority 1992, dated 2002)

Experiments:
waterchestnut = test: Test D paddy water application plant response rating 0 to 100; type: in vivo, Eleocharis spp.; details: 0 to 100 scale, approx. 21 days
Method in brief: (§1)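 Visual ratings versus controls are taken roughly 21 days after a paddy-water application of compound formulated in a non-phytotoxic solvent. Plants grow in saturated silt loam with water maintained 3 cm above the soil in a greenhouse.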

blackgrass = test: Test F preemergence/postemergence greenhouse plant response rating 0 to 100; type: in vivo, Alopecurus myosuroides; details: POSTEMERGENCE, 0 to 100 scale; for Blackgrass (1) plant response rating: stage (1) two to three leaves; for Blackgrass (2) plant response rating: stage (2) approximately four leaves or initial tillering
From the text: (§2) Compounds evaluated in this test were formulated in a non-phytoxic solvent and applied to the soil surface before plant seedlings emerged (preemergence application) and to plants that were in the one-to-four leaf stage (postemergence application). A sandy loam soil was used for the preemergence test while a mixture of sandy loam soil and greenhouse potting mix in a 60:40 ratio was used for the postemergence test. Test compounds were applied within approximately one day after planting seeds for the preemergence test. Plantings of these crops and weed species were adjusted to produce plants of appropriate size for the postemergence test. All plant species were grown using normal greenhouse practices. Crop and weed species include winter barley (Hordeum vulgare cv. ‘Igri’), blackgrass (Alopecurus myosuroides), chickweed (Stellaria media), downy brome (Bromus tectorum), field violet (Viola arvensis), galium (Galium aparine), green foxtail (Setaria viridis), kochia (Kochia scoparia), lambsquarters (Chenopodium album), speedwell (Veronica persica), rape (Brassica napus), ryegrass (Lolium multiflorum), sugar beet (Beta vulgaris cv. ‘USl’), sunflower (Helianthus annuus cv. ‘Russian Giant’), spring wheat (Triticum aestivum cv. ‘ERA’), winter wheat (Triticum aestivum cv. ‘Talent’), wild buckwheat (Polygonum convolvulus), wild mustard (Sinapis arvensis), wild oat (Avena fatua), and wild radish (Raphanus raphanistrum). Blackgrass, galium and wild oat were treated at two growth stages. […] Treated plants and untreated controls were maintained in a greenhouse for approximately 21 to 28 days, after which all treated plants were compared to untreated controls and visually evaluated. […] A dash response (-) means no test result.

umbrella sedge = test: Test D paddy water application plant response rating 0 to 100; type: in vivo, Cyperus difformis; details: 0 to 100 scale, approx. 21 days
Method in brief: as §1

duck salad = test: as above; type: in vivo, Heteranthera limosa; details: 0 to 100 scale, approx. 21 days
Method in brief: as §1

Japonica rice [1] = test: as above; type: in vivo, Oryza sativa; details: 0 to 100 scale, approx. 21 days
Method in brief: as §1

barnyardgrass [2] = test: Test E paddy water application plant response rating 0 to 100; type: in vivo, Echinochloa crus-galli; details: Flood, 0 to 100 scale, approx. 21 days
Method in brief: (§3)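 Compounds in a non-phytotoxic solvent were applied directly to paddy water kept 2 cm above silt loam soil in greenhouse pots.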

barnyardgrass [3] = test: Test D paddy water application plant response rating 0 to 100; type: in vivo, Echinochloa crus-galli; details: 0 to 100 scale, approx. 21 days
Method in brief: as §1

Japonica rice [4] = test: Test E paddy water application plant response rating 0 to 100; type: in vivo, oryza sativa; details: Flood, 0 to 100 scale, approx. 21 days
Method in brief: as §3

winter barley = test: Test F preemergence/postemergence greenhouse plant response rating 0 to 100; type: in vivo, Hordeum vulgare cv. ‘Igri’; details: POSTEMERGENCE, 0 to 100 scale
From the text: as §2

wild radish = test: as above; type: in vivo, Raphanus raphanistrum; details: POSTEMERGENCE, 0 to 100 scale
From the text: as §2

spring wheat = test: as above; type: in vivo, Triticum aestivum cv. ‘ERA’; details: POSTEMERGENCE, 0 to 100 scale
From the text: as §2

arrowhead = test: Test D paddy water application plant response rating 0 to 100; type: in vivo, Sagittaria spp.; details: 0 to 100 scale, approx. 21 days
Method in brief: as §1

speedwell = test: Test F preemergence/postemergence greenhouse plant response rating 0 to 100; type: in vivo, Veronica persica; details: POSTEMERGENCE, 0 to 100 scale
From the text: as §2

lambsquarters = test: as above; type: in vivo, Chenopodium album; details: POSTEMERGENCE, 0 to 100 scale
From the text: as §2

Fc1cc(Cl)c(OCCCl)cc1-c1nn2c(c1Cl)CCCC2 [Compound 49]
Waterchestnut plant response rating (waterchestnut; Rate 4 g/ha): 0
Waterchestnut plant response rating (waterchestnut; Rate 8 g/ha): 0
Waterchestnut plant response rating (waterchestnut; Rate 16 g/ha): 0
Waterchestnut plant response rating (waterchestnut; Rate 32 g/ha): 10
Waterchestnut plant response rating (waterchestnut; Rate 64 g/ha): 20
Blackgrass (1) plant response rating (blackgrass; Rate 2 g/ha): 0
Blackgrass (2) plant response rating (blackgrass; Rate 2 g/ha): 0
Blackgrass (1) plant response rating (blackgrass; Rate 4 g/ha): 0
Blackgrass (2) plant response rating (blackgrass; Rate 4 g/ha): 0
Blackgrass (1) plant response rating (blackgrass; Rate 8 g/ha): 0
Blackgrass (2) plant response rating (blackgrass; Rate 8 g/ha): 0
Blackgrass (1) plant response rating (blackgrass; Rate 16 g/ha): 0
Blackgrass (2) plant response rating (blackgrass; Rate 16 g/ha): 0
Blackgrass (1) plant response rating (blackgrass; Rate 32 g/ha): 0
Blackgrass (2) plant response rating (blackgrass; Rate 32 g/ha): 10
Umbrella sedge plant response rating (umbrella sedge; Rate 4 g/ha): 0
Umbrella sedge plant response rating (umbrella sedge; Rate 8 g/ha): 0
Umbrella sedge plant response rating (umbrella sedge; Rate 16 g/ha): 0
Umbrella sedge plant response rating (umbrella sedge; Rate 32 g/ha): 0
Umbrella sedge plant response rating (umbrella sedge; Rate 64 g/ha): 50
Duck salad plant response rating (duck salad; Rate 4 g/ha): 0
Duck salad plant response rating (duck salad; Rate 8 g/ha): 0
Duck salad plant response rating (duck salad; Rate 16 g/ha): 0
Duck salad plant response rating (duck salad; Rate 32 g/ha): 0
Duck salad plant response rating (duck salad; Rate 64 g/ha): 10
Japonica rice plant response rating (Japonica rice [1]; Rate 4 g/ha): 10
Japonica rice plant response rating (Japonica rice [1]; Rate 8 g/ha): 10
Japonica rice plant response rating (Japonica rice [1]; Rate 16 g/ha): 10
Japonica rice plant response rating (Japonica rice [1]; Rate 32 g/ha): 15
Japonica rice plant response rating (Japonica rice [1]; Rate 64 g/ha): 20
Barnyardgrass 2 plant response rating (barnyardgrass [2]; Rate 8 g/ha): 25
Barnyardgrass 3 plant response rating (barnyardgrass [2]; Rate 8 g/ha): 35
Barnyardgrass 2 plant response rating (barnyardgrass [2]; Rate 16 g/ha): 45
Barnyardgrass 3 plant response rating (barnyardgrass [2]; Rate 16 g/ha): 45
Barnyardgrass 2 plant response rating (barnyardgrass [2]; Rate 32 g/ha): 90
Barnyardgrass 3 plant response rating (barnyardgrass [2]; Rate 32 g/ha): 55
Barnyardgrass 2 plant response rating (barnyardgrass [2]; Rate 64 g/ha): 100
Barnyardgrass 3 plant response rating (barnyardgrass [2]; Rate 64 g/ha): 70
Barnyardgrass 2 plant response rating (barnyardgrass [3]; Rate 4 g/ha): 0
Barnyardgrass 2 plant response rating (barnyardgrass [3]; Rate 8 g/ha): 20
Barnyardgrass 2 plant response rating (barnyardgrass [3]; Rate 16 g/ha): 30
Barnyardgrass 2 plant response rating (barnyardgrass [3]; Rate 32 g/ha): 70
Barnyardgrass 2 plant response rating (barnyardgrass [3]; Rate 64 g/ha): 100
Japonica 1 plant response rating (Japonica rice [4]; Rate 8 g/ha): 0
Japonica 2 plant response rating (Japonica rice [4]; Rate 8 g/ha): 0
Japonica 1 plant response rating (Japonica rice [4]; Rate 16 g/ha): 0
Japonica 2 plant response rating (Japonica rice [4]; Rate 16 g/ha): 20
Japonica 1 plant response rating (Japonica rice [4]; Rate 32 g/ha): 0
Japonica 2 plant response rating (Japonica rice [4]; Rate 32 g/ha): 30
Japonica 1 plant response rating (Japonica rice [4]; Rate 64 g/ha): 25
Japonica 2 plant response rating (Japonica rice [4]; Rate 64 g/ha): 30
Winter Barley plant response rating (winter barley; Rate 2 g/ha): 0
Winter Barley plant response rating (winter barley; Rate 4 g/ha): 0
Winter Barley plant response rating (winter barley; Rate 8 g/ha): 10
Winter Barley plant response rating (winter barley; Rate 16 g/ha): 10
Winter Barley plant response rating (winter barley; Rate 32 g/ha): 20
Wild radish plant response rating (wild radish; Rate 2 g/ha): 0
Wild radish plant response rating (wild radish; Rate 4 g/ha): 0
Wild radish plant response rating (wild radish; Rate 8 g/ha): 10
Wild radish plant response rating (wild radish; Rate 16 g/ha): 100
Wheat (Spring) plant response rating (spring wheat; Rate 2 g/ha): 0
Wheat (Spring) plant response rating (spring wheat; Rate 4 g/ha): 0
Wheat (Spring) plant response rating (spring wheat; Rate 8 g/ha): 0
Wheat (Spring) plant response rating (spring wheat; Rate 16 g/ha): 10
Wheat (Spring) plant response rating (spring wheat; Rate 32 g/ha): 20
Arrowhead plant response rating (arrowhead; Rate 4 g/ha): 0
Arrowhead plant response rating (arrowhead; Rate 8 g/ha): 0
Arrowhead plant response rating (arrowhead; Rate 16 g/ha): 0
Arrowhead plant response rating (arrowhead; Rate 64 g/ha): 0
Persn Speedwell plant response rating (speedwell; Rate 2 g/ha): 50
Persn Speedwell plant response rating (speedwell; Rate 4 g/ha): 50
Persn Speedwell plant response rating (speedwell; Rate 8 g/ha): 60
Persn Speedwell plant response rating (speedwell; Rate 16 g/ha): 100
Persn Speedwell plant response rating (speedwell; Rate 32 g/ha): 100
Lambsquarters plant response rating (lambsquarters; Rate 4 g/ha): 50
Lambsquarters plant response rating (lambsquarters; Rate 16 g/ha): 50
Lambsquarters plant response rating (lambsquarters; Rate 32 g/ha): 70
